In this series the test system is CCRIS mutagenicity, Ames/micronucleus/aberration tests. Kind of series: CCRIS mutagenicity studies.
The mark [1] stands for this setting: Test System: AMES SALMONELLA TYPHIMURIUM, Strain/Indicator: TA98, Metabolic Activation: NONE, Method: STANDARD PLATE.
Setting [2] is: Test System: AMES SALMONELLA TYPHIMURIUM, Strain/Indicator: TA98, Metabolic Activation: RAT, LIVER, S-9, AROCLOR 1254, Method: STANDARD PLATE.
[3] abbreviates: Test System: AMES SALMONELLA TYPHIMURIUM, Strain/Indicator: TA100, Metabolic Activation: NONE, Method: STANDARD PLATE.
[4] abbreviates: Test System: AMES SALMONELLA TYPHIMURIUM, Strain/Indicator: TA100, Metabolic Activation: RAT, LIVER, S-9, AROCLOR 1254, Method: STANDARD PLATE.

Each structure is given as a SMILES string. Active and inactive are the calls of the source. The rule behind the calls is not given here.

Regarding `CCCN(C)N=O`, the mutagenic call is “active; positive” (Test System: CHINESE HAMSTER V-79, Strain/Indicator: V-79/8-AZAGUANINE, Metabolic Activation: RAT, LIVER, S-15, PHENOBARBITAL, Method: STANDARD PLATE) and “active; positive” (Test System: CHINESE HAMSTER V-79, Strain/Indicator: V-79/OUABAIN, Metabolic Activation: HAMSTER, HEPATOCYTES, Method: CELL-MEDIATED).
For the compound `CC(=O)N(O)c1ccccc1`, the mutagenic call runs as follows: under setting [1], “inactive; negative”; under setting [2], “inactive; negative”; under setting [3], “inactive; negative”; under setting [4], “inactive; negative”.
Turning to `CNC(=O)N(C)c1nc2ccccc2s1`, the mutagenic call was “inactive; negative” under setting [1], “inactive; negative” under setting [2], “inactive; negative” under setting [3] and “inactive; negative” under setting [4].
In the case of `CCN(N=O)C(=O)Nc1ccccc1`, where the note is “End Point: IN VITRO CHROMOSOMAL ABERRATIONS, Test System: CHINESE HAMSTER V79-E CELLS, Metabolic Activation: NONE”, the mutagenic call is “active; positive (structural changes)”.
Turning to `O=[N+]([O-])c1ccc2ccc3c4ccccc4nc4ccc1c2c43`, the mutagenic call is “active; positive” (Test System: AMES SALMONELLA TYPHIMURIUM, Strain/Indicator: TA98(1,8-DNP6), Metabolic Activation: NONE); “active; positive” (Test System: AMES SALMONELLA TYPHIMURIUM, Strain/Indicator: TA98(NR), Metabolic Activation: NONE); “active; positive” (Test System: AMES SALMONELLA TYPHIMURIUM, Strain/Indicator: TA98, Metabolic Activation: NONE).
Take `Oc1ccc2ccc3c4c(ccc3c2c1)[C@@H](O)[C@H](O)C=C4`: the mutagenic call was “inactive; negative” under setting [1], “active; positive” under setting [2], “inactive; negative” under setting [3] and “active; positive” under setting [4].
For the compound `CCN[C@H](C)C[C@@H](C)NCC.[Cl-].[Cl-].[Pt+2]`, the mutagenic call (Test System: AMES SALMONELLA TYPHIMURIUM, Strain/Indicator: TA97A, Metabolic Activation: NONE, Method: STANDARD PLATE) was “inactive; negative” and the mutagenic call under setting [3] is “inactive; negative”.
With `S=C=Nc1cccc2ccccc12`, the mutagenic call reads like this: (Test System: AMES SALMONELLA TYPHIMURIUM, Strain/Indicator: TA97, Metabolic Activation: HAMSTER, LIVER, S-9, AROCLOR 1254 (30%), Method: PREINCUBATION) “active; positive”; (Test System: AMES SALMONELLA TYPHIMURIUM, Strain/Indicator: TA97, Metabolic Activation: NONE, Method: PREINCUBATION) “inactive; negative”; (Test System: AMES SALMONELLA TYPHIMURIUM, Strain/Indicator: TA97, Metabolic Activation: RAT, LIVER, S-9, AROCLOR 1254 (10 OR 30%), Method: PREINCUBATION) “inactive; negative”; (Test System: AMES SALMONELLA TYPHIMURIUM, Strain/Indicator: TA98, Metabolic Activation: HAMSTER, LIVER, S-9, AROCLOR 1254 (30%), Method: PREINCUBATION) “inactive; negative”; (Test System: AMES SALMONELLA TYPHIMURIUM, Strain/Indicator: TA98, Metabolic Activation: NONE, Method: PREINCUBATION) “inactive; negative”; (Test System: AMES SALMONELLA TYPHIMURIUM, Strain/Indicator: TA98, Metabolic Activation: RAT, LIVER, S-9, AROCLOR 1254 (1O OR 30%), Method: PREINCUBATION) “inactive; negative”. Further, the mutagenic call (Test System: AMES SALMONELLA TYPHIMURIUM, Strain/Indicator: TA100, Metabolic Activation: HAMSTER, LIVER, S-9, AROCLOR 1254 (10%), Method: PREINCUBATION) was “inactive; negative”; the mutagenic call (Test System: AMES SALMONELLA TYPHIMURIUM, Strain/Indicator: TA100, Metabolic Activation: HAMSTER, LIVER, S-9, AROCLOR 1254 (30%), Method: PREINCUBATION) is “active; positive”; the mutagenic call (Test System: AMES SALMONELLA TYPHIMURIUM, Strain/Indicator: TA100, Metabolic Activation: NONE, Method: PREINCUBATION) is “inactive; negative”; the mutagenic call (Test System: AMES SALMONELLA TYPHIMURIUM, Strain/Indicator: TA100, Metabolic Activation: RAT, LIVER, S-9, AROCLOR 1254 (10%), Method: PREINCUBATION) is “inactive; negative”; the mutagenic call (Test System: AMES SALMONELLA TYPHIMURIUM, Strain/Indicator: TA100, Metabolic Activation: RAT, LIVER, S-9, AROCLOR 1254 (30%), Method: PREINCUBATION) was “inactive; negative”; the mutagenic call (Test System: AMES SALMONELLA TYPHIMURIUM, Strain/Indicator: TA1535, Metabolic Activation: HAMSTER, LIVER, S-9, AROCLOR 1254 (10 OR 30%), Method: PREINCUBATION) is “inactive; negative”. Also, the mutagenic call was “inactive; negative” (Test System: AMES SALMONELLA TYPHIMURIUM, Strain/Indicator: TA1535, Metabolic Activation: NONE, Method: PREINCUBATION); “inactive; negative” (Test System: AMES SALMONELLA TYPHIMURIUM, Strain/Indicator: TA1535, Metabolic Activation: RAT, LIVER, S-9, AROCLOR 1254 (10 OR 30%), Method: PREINCUBATION); “inactive; negative” (Test System: AMES SALMONELLA TYPHIMURIUM, Strain/Indicator: TA1537, Metabolic Activation: HAMSTER, LIVER, S-9, AROCLOR 1254 (30%), Method: PREINCUBATION); “inactive; negative” (Test System: E. COLI, Strain/Indicator: WP2 UVRA, Metabolic Activation: HAMSTER, LIVER, S-9, AROCLOR 1254, Method: STANDARD PLATE); “inactive; negative” (Test System: E. COLI, Strain/Indicator: WP2 UVRA, Metabolic Activation: HAMSTER, LIVER, S-9, Method: STANDARD PLATE); “inactive; negative” (Test System: E. COLI, Strain/Indicator: WP2 UVRA, Metabolic Activation: MOUSE, LIVER, S-9, AROCLOR 1254, Method: STANDARD PLATE). For the same compound, the mutagenic call runs as follows: (Test System: E. COLI, Strain/Indicator: WP2 UVRA, Metabolic Activation: MOUSE, LIVER, S-9, Method: STANDARD PLATE) “inactive; negative”; (Test System: E. COLI, Strain/Indicator: WP2 UVRA, Metabolic Activation: NONE, Method: STANDARD PLATE) “inactive; negative”; (Test System: E. COLI, Strain/Indicator: WP2 UVRA, Metabolic Activation: RAT, LIVER, S-9, AROCLOR 1254, Method: STANDARD PLATE) “inactive; negative”; (Test System: E. COLI, Strain/Indicator: WP2 UVRA, Metabolic Activation: RAT, LIVER, S-9, Method: STANDARD PLATE) “inactive; negative”.

The values are drawn from PubChem BioAssay AID1259407 (Chemical Carcinogenesis Research Information System (CCRIS), 2018).
